In patent publication EP1137645B1, “ALPHA-METHYLBENZYL-CONTAINING THIOUREA INHIBITORS OF HERPES VIRUSES CONTAINING A […] GROUP” (Wyeth, priority 1998, dated 2000):
In brackets after ≈: the same amount, converted by molar mass. Where two headings read alike, the source gives them in different places.

What was measured:
VZV strain Ellen = test: VZV antiviral (ELISA) assay; type: cell-based
Description: For the generation of stock VZV to be used in the assay, VZV strain Ellen (ATCC #VR-1367) is used to infect human foreskin fibroblast (HFF) cells at low multiplicity (less than 0.1) and incubated overnight at 37°C in 5% CO2. After the overnight incubation, the mixture of uninfected and VZV-infected HFF infected cells are then harvested and added to each well of 96-well plates (3.5x10^4 cells in 100 µl DMEM supplemented with 2% FBS) which contain test compound or the reference standard drug control (in 100µl DMEM supplemented with 2% FBS per well). These cells are incubated for three days at 37°C in 5% CO2, then fixed for ELISA assay. The primary antibody is murine anti-VZV glycoprotein II monoclonal antibody (Applied Biosystems, Inc. #13-145-100) and the secondary antibody is goat anti-mouse IgG linked to β-galactosidase. Thus the extent of viral replication is determined by assessing β-galactosidase activity by quantifying the generation of the 4-methyl umbelliferone fluorescent cleavage product after addition of the methyl umbelliferyl-β-D-galactoside (Sigma #M1633) substrate on a microfluorimeter (365nm for excitation and 450nm for emission). Antiviral activity (IC50) of the test compound is determined by comparing the flourescence obtained in absence of compound to that obtained in the presence of compound.

[1] = tested on: HCMV recombinant mutant virus whose genome contains the prokaryotic beta-glucuronidase gene; test: microbe, parasite or virus in culture; type: cell-based, human cytomegalovirus; details: for IC50: Human betaherpesvirus 5, Fibroblast
Excerpt: Microtiter plate assay. Ninety-six well plate cultures of human foreskin fibroblasts are infected in the presence of inhibitor compound with a HCMV recombinant mutant virus whose genome contains the prokaryotic beta-glucuronidase gene (Jefferson, R. A., S. M. Burgess, and D. Hirsh. 1986. Beta-glucuronidase from Escherichia coli as a gene fusion marker. Proc. Natl. Acad. Sci. USA 83:8447-8451) whose expression is controlled by a viral promoter. An example of such a virus is RV145 (Jones, T. R., V. P. Muzithras, and Y. Gluzman. 1991. Replacement mutagenesis of the human cytomegalovirus genome: US10 and US11 gene products are nonessential. J. Virol. 65:5860-5872). Since it is under the control of a viral promoter, beta-glucuronidase expression is an indirect indicator of growth and replication of HCMV in this assay. At 96 hours post-infection, the infected cell lysates are prepared (using 50mM sodium phosphate [pH7.0] containing 0.1% Triton X-100 and 0.1% sarkosyl) and assayed for beta-glucuronidase activity using a substrate for the enzyme which when cleaved yields either a product which can be measured colorimetrically in a spectrophotometer or fluorescently in a microfluorimeter. Examples of such substrates are p-nitrophenyl-beta-D-glucuronide and methylumbelliferylglucuronide, respectively. The presence of an antiviral compound is indicated by the reduced expression of the HCMV genome resident beta-glucuronidase gene, compared to the absence of inhibitor. […] Data from this assay generated using varying amounts of inhibitor compound is also used to estimate the IC50 of an inhibitor compound.

[2] = Human alphaherpesvirus 3, VZV strain Ellen, HFF cells, ELISA, read-out: IC50 (ug/ml) VZV
[3] = Human alphaherpesvirus 3, HFF, read-out: IC50 (ug/ml) VZV, VZV strain Ellen, HFF cells, ELISA
[4] = read-out: IC50 ug/ml HCMV, HCMV, human foreskin fibroblasts

| SMILES | IC50 (VZV strain Ellen; [2]) | IC50 (VZV strain Ellen; [3]) | IC50 [1, 4] | further results |
| --- | --- | --- | --- | --- |
| O=C(Nc1ccc(NC(=S)NCc2cc(F)cc(C(F)(F)F)c2)cc1)c1ccccc1F [Example 586, 2-Fluoro-N-{4-[3-(3-fluoro-5-trifluoromethyl-benzyl)-thioureido]-phenyl}-benzamide] | > 10 µg/mL |  |  |  |
| CN(C)c1ccc(CNC(=S)Nc2ccc(NC(=O)c3ccccc3F)cc2)cc1C(F)(F)F [Example 610, N-{4-[3-(4-Dimethylamino-3-trifluoromethyl-benzyl)-thioureido]-phenyl}-2-fluoro-benzamide] |  | > 10 µg/mL | > 0.5 µg/mL |  |
| O=C(Nc1ccc(NC(=S)Nc2cc(N3CCOCC3)cc(C(F)(F)F)c2)cc1)c1ccccc1F [Example 568, 2-Fluoro-N-{4-[3-(3-morpholin-4-yl-5-trifluoromethyl-phenyl)-thioureido]-phenyl}-benzamide] |  | 2.3 µg/mL (≈ 4.44 µM) | > 0.5 µg/mL |  |
| O=C(Nc1ccc(NC(=S)NCc2ccc(N3CCCCC3)c(C(F)(F)F)c2)cc1)c1ccccc1F [Example 616, 2-Fluoro-N-{4-[3-(4-piperidin-1-yl-3-trifluoromethyl-benzyl)-thioureido]-phenyl}-benzamide] |  | > 10 µg/mL |  |  |
| CCC(C)Cc1cc(NC(=S)Nc2ccc(NC(=O)c3ccccc3F)cc2)cc(C(F)(F)F)c1 (stereo not shown) [Example 577, 2-Fluoro-N-(4-{3-[3-(2-methyl-butyl)-5-trifluoromethyl-phenyl]-thioureido}-phenyl)-benzamide] |  | > 7.5 µg/mL |  |  |
| O=C(Nc1ccc(NC(=S)NCc2cc(F)cc(F)c2)cc1)c1ccccc1F [Example 580, N-{4-[3-(3,5-Difluoro-benzyl)-thioureido]-phenyl}-2-fluoro-benzamide] | > 10 µg/mL |  |  |  |
| C[C@H](NC(=S)Nc1ccc(NC(=O)c2ccc(F)cc2)cc1)c1ccc(Br)cc1 [Example 1103, N-(4-{3-[(1S)-1-(4-Bromo-phenyl)-ethyl]-thioureido}-phenyl)-4-fluoro-benzamide] |  | 0.47 µg/mL (≈ 0.995 µM) | 3.4 µg/mL (≈ 7.2 µM) |  |
| CC(NC(=S)Nc1ccc(NC(=O)c2ccccc2I)cc1)c1ccc(F)cc1 (stereo not shown) [Example 812, N-(4-{3-[1-(4-Fluoro-phenyl)-ethyl]-thioureido}-phenyl)-2-iodo-benzamide] | 3.4 µg/mL (≈ 6.55 µM) |  |  |  |
| CN(C)c1cc(NC(=S)Nc2ccc(NC(=O)c3ccccc3F)cc2)cc(C(F)(F)F)c1 [Example 567, N-{4-[3-(3-Dimethylamino-5-trifluoromethyl-phenyl)-thioureido]-phenyl}-2-fluoro-benzamide] | 2 µg/mL (≈ 4.2 µM) |  |  | IC50 ([1]; read-out: IC50 ug/ml HCMV): > 0.5 µg/mL |
| COc1ccccc1C(=O)Nc1ccc(NC(=S)N[C@H](C)c2ccc(Br)cc2)cc1 [Example 1105, N-(4-{3-[(1R)-1-(4-Bromo-phenyl)-ethyl]-thioureido}-phenyl)-2-methoxy-benzamide] |  | > 7.5 µg/mL | 2.5 µg/mL (≈ 5.16 µM) |  |
| C[C@H](NC(=S)Nc1ccc(NC(=O)c2nccc3ccccc23)cc1)c1ccc(Br)cc1 [Example 1107, Isoquinoline-1-carboxylic acid (4-{3-[(1S)-1-(4-bromo-phenyl)-ethyl]-thioureido}-phenyl)-amide] |  | 0.05 µg/mL (≈ 0.0989 µM) | 8.1 µg/mL (≈ 16 µM) |  |
| CC(NC(=S)Nc1ccc(NC(=O)c2ccccc2C#N)cc1)c1ccc(F)cc1 (stereo not shown) [Example 993, 2-Cyano-N-(4-{3-[1-(4-fluoro-phenyl)-ethyl]-thioureido}-phenyl)-benzamide] | 2.7 µg/mL (≈ 6.45 µM) |  |  |  |
| C[C@H](NC(=S)Nc1ccc(NC(=O)c2cc3ccccc3cn2)cc1)c1ccc(Br)cc1 [Example 1108, Isoquinoline-3-carboxylic acid (4-{3-[(1S)-1-(4-bromo-phenyl)-ethyl]-thioureido}-phenyl)-amide] |  | 0.05 µg/mL (≈ 0.0989 µM) | 2.3 µg/mL (≈ 4.55 µM) |  |
| O=C(Nc1ccc(NC(=S)NCc2cc(Cl)cc(Cl)c2)cc1)c1ccccc1F [Example 583, N-{4-[3-(3,5-Dichloro-benzyl)-thioureido]-phenyl}-2-fluoro-benzamide] |  | 10 µg/mL (≈ 22.3 µM) |  |  |
| CC(NC(=S)Nc1ccc(NC(=O)c2ccccc2F)cc1)c1ccc(Br)cc1 (stereo not shown) [Example 1102, N-(4-{3-[1-(4-Bromo-phenyl)-ethyl]-thioureido}-phenyl)-2-fluoro-benzamide] |  | 0.2 µg/mL (≈ 0.423 µM) | 1.7 µg/mL (≈ 3.6 µM) |  |
| CN1CCN(c2cc(NC(=S)Nc3ccc(NC(=O)c4ccccc4F)cc3)cc(C(F)(F)F)c2)CC1 [Example 569, 2-Fluoro-N-(4-{3-[3-(4-methyl-piperazin-1-yl)-5-trifluoromethyl-phenyl]-thioureido}-phenyl)-benzamide] |  | 3 µg/mL (≈ 5.64 µM) | > 0.5 µg/mL |  |
| CN1CCC(N(C)c2ccc(NC(=S)Nc3ccc(NC(=O)c4ccccc4F)cc3)cc2Cl)CC1 [Example 855, N-[4-(3-{3-Chloro-4-[methyl-(1-methyl-piperidin-4-yl)-amino]-phenyl}-thioureido)-phenyl]-2-fluoro-benzamide] | > 10 µg/mL |  |  | inhibition at 10 µg/mL (VZV strain Ellen; Human alphaherpesvirus 3, read-out: % inhibition 10 ug/ml VZV, 10 ug/ml, VZV strain Ellen, HFF cells, ELISA): 52%; IC50 ug/ml HCMV ([1]; HCMV, human foreskin fibroblasts): 0.7 µg/mL (≈ 1.33 µM) |
| CC(NC(=S)Nc1ccc(NC(=O)c2ccccc2C(F)(F)F)cc1)c1ccc(F)cc1 (stereo not shown) [Example 992, N-(4-{3-[1-(4-Fluoro-phenyl)-ethyl]-thioureido}-phenyl)-2-trifluoromethyl-benzamide] | 1.2 µg/mL (≈ 2.6 µM) |  |  | IC50 ([1]; read-out: IC50 ug/ml HCMV): 4 µg/mL (≈ 8.67 µM) |
| C[C@H](NC(=S)Nc1ccc(NC(=O)c2nccc3ccccc23)cc1)c1ccc(C#N)cc1 [Example 1111] |  |  | > 10 µg/mL | IC50 (VZV strain Ellen; Human alphaherpesvirus 3, HFF, read-out: IC50 (ug/ml) VZV): 0.1 µg/mL (≈ 0.221 µM) |
| O=C(Nc1ccc(NC(=S)Nc2cc(N3CCCCC3)cc(C(F)(F)F)c2)cc1)c1ccccc1F [Example 570, 2-Fluoro-N-{4-[3-(3-piperidin-1-yl-5-trifluoromethyl-phenyl)-thioureido]-phenyl}-benzamide] |  | > 10 µg/mL | > 0.5 µg/mL |  |
| O=C(Nc1ccc(NC(=S)NCCOc2ccccc2)cc1)c1ccccc1F [Example 625, 2-Fluoro-N-{4-[3-(2-phenoxy-ethyl)-thioureido]-phenyl}-benzamide] | 4 µg/mL (≈ 9.77 µM) |  |  |  |
| C[C@H](NC(=S)Nc1ccc(NC(=O)c2nccc3ccccc23)cc1)c1ccc(Cl)cc1 [Example 1109, Isoquinoline-1-carboxylic acid (4-{3-[(1S)-1-(4-chloro-phenyl)-ethyl]-thioureido) -phenyl)-amide] | 0.03 µg/mL (≈ 0.0651 µM) |  |  | IC50 ([1]; read-out: IC50 ug/ml HCMV): 4.4 µg/mL (≈ 9.54 µM) |
| C[C@@H](NC(=S)Nc1ccc(NC(=O)c2ccccc2F)cc1)c1ccc(Br)cc1 [Example 1005, N-(4-{3-[(1R)-1-(4-Bromo-phenyl)-ethyl]-thioureido}-phenyl)-2-fluoro-benzamide] |  | 4.3 µg/mL (≈ 9.1 µM) | 2.1 µg/mL (≈ 4.45 µM) |  |
| CC(NC(=S)Nc1ccc(NC(=O)c2cc3ccccc3cn2)cc1)c1ccc(F)cc1 (stereo not shown) [Example 984, Isoquinoline-3-carboxylic acid (4-{3-[1-(4-fluoro-phenyl)-ethyl]-thioureido}-phenyl)-amide] |  | 0.08 µg/mL (≈ 0.18 µM) | 1.5 µg/mL (≈ 3.37 µM) |  |
| COc1ccccc1C(=O)Nc1ccc(NC(=S)N[C@@H](C)c2ccc(Br)cc2)cc1 [Example 1104, N-(4-{3-[(1S)-1-(4-Bromo-phenyl)-ethyl]-thioureido}-phenyl)-2-methoxy-benzamide] |  | 0.09 µg/mL (≈ 0.186 µM) | 4.9 µg/mL (≈ 10.1 µM) |  |
| O=C(Nc1ccc(NC(=S)NCCc2ccccc2)cc1)c1ccccc1F [Example 576, 2-Fluoro-N-[4-(3-phenethyl-thioureido)-phenyl]-benzamide] | 8 µg/mL (≈ 20.3 µM) |  |  | IC50 ([1]; read-out: IC50 ug/ml HCMV): > 0.5 µg/mL |
| CC(NC(=S)Nc1ccc(NC(=O)c2ccccc2F)cc1)c1ccc(C(F)(F)F)cc1F (stereo not shown) [Example 1106, 2-fluoro-N-(4-{[({1-[2-fluoro-4-(trifluoromethyl)phenyl]ethyl}amino)carbothioyl]amino}phenyl)benzamide] | > 7.5 µg/mL |  |  | IC50 ([1]; read-out: IC50 ug/ml HCMV): 1.1 µg/mL (≈ 2.29 µM) |
| O=C(Nc1ccc(NC(=S)NCc2ccc(F)c(C(F)(F)F)c2)cc1)c1ccccc1F [Example 623, 2-Fluoro-N-{4-[3-(4-fluoro-3-trifluoromethyl-benzyl)-thioureido]-phenyl}-benzamide] | > 10 µg/mL |  |  |  |
| CC(C)Cc1cc(NC(=S)Nc2ccc(NC(=O)c3ccccc3F)cc2)cc(C(F)(F)F)c1 [Example 578, 2-Fluoro-N-{4-[3-(3-isobutyl-5-trifluoromethyl-phenyl)-thioureido]-phenyl}-benzamide] |  | > 10 µg/mL |  |  |
